Measurements: US9353154B2, “Compositions for labeling nerves and methods of use” (Avelas Biosciences, Inc., priority 2010, dated 2016)
“Also recorded” adds a separate entry of the source. Where a SMILES comes first, the peptide text is derived from it. The star is where a group is joined. 6FAM = O=C1OC2(c3ccc(O)cc3Oc3cc(O)ccc32)c2cc(C(=O)*)ccc21

Legend:
[1] = test system: mouse sciatic nerve; test: In vivo sciatic nerve fluorescence contrast (nerve vs surrounding muscle); conditions: 150 nmol via tail vein injection, imaging at 2 h
Method: (§1) Fluorescence contrast activity of was assessed using male euthymic and immunocompetent hairless SKH1-E mice (25-35 grams). On the day of study, each involved mouse was weighed and restrained using the rotating tail injector for intravenous (tail vein) injection in conscious animal.
(§2) Test agents were injected intravenously into the tail vein (30-150 nmol in 0.1 mL/mouse). The animals were returned to assigned cage and kept under controlled environmental conditions before being examined for sciatic nerve fluorescence labeling 2 hours later.
(§3) Two hours after the intravenous injection, the mice were anesthetized with a mixture of ketamine HCl/Xylazine HCl solution administered intraperitoneally. The deeply anesthetized mice were transferred on the piece of cork for blunt dissection of sciatic nerve.
After the full body imaging, the deeply anesthetized mice were transferred on the computerized fluorescent stereomicroscope equipped with appropriate excitation/emission filters to examine and record the fluorescence specific to sciatic nerve and compare it to that documented on the surrounding tissues such as muscle. All captured images were examined and analyzed using Image J to generate quantitative data.
For each experimental group, fluorescence intensities from each mouse sciatic nerve were averaged to generate the Mean±SEM value. The background was defined as the average fluorescence intensities of the muscle tissue surrounding the sciatic nerve. The fluorescence contrast (C) is defined and calculated as C=(IN−IB)/IB, where IN is the average nerve fluorescence intensity and IB is the average proximal background intensity. Constrast>0.4 is considered good.

[2] = test system: mouse skin; test: In vivo skin fluorescence (full body imaging, skin staining activity); conditions: 150 nmol via tail vein injection, imaging at 2 h
Method: as §1, §2, §3
Full body imaging of deeply anesthetized mouse with open surgical wound/exposed sciatic nerve was then performed using a computerized imaging system with appropriate excitation/emission filters. The full body imaging was used to calculate the skin staining activity of the visualization agents.

[3] = Plasma digestion of Peptide A followed by LC-MS; type: in vitro ADME; conditions: mouse plasma, 37° C.
Method: (§4) 6-Carboxylfluorescein (6-FAM) labeled peptide A (1 mg) was added to freshly prepared mouse plasma (0.5 mL). The resulting solution was gently mixed and incubated at 37° C. The reaction was followed by an LC-MS at different time points. An analogous procedure was done at room temperature with 1-5 mg of Peptide A.

[4] = Stability of peptide A in saline (control); type: physicochemical; conditions: 48 h
Method: as §4
The peak was isolated by preparative RP-HPLC. […] As a control, peptide A is stable in saline after 48 h (Chart E&F, FIG. 5).

| Compound | fluorescence nerve contrast [1] | fluorescence nerve contrast relative to peptide A [1] | fluorescence nerve contrast ([1]; listed as peptide 3) | skin fluorescence compared to peptide A [2] | skin fluorescence compared to peptide A ([2]; listed as peptide 3) | digested products in plasma ([3]; 3 h) | digestion in plasma (HPLC chromatogram, 220 nm absorbance) ([3]; 20 h) | digestion in plasma (HPLC chromatogram, 220 nm absorbance) ([3]; 48 h) | major truncated component after plasma digestion ([3]; peak isolated by preparative RP-HPLC) | stability in saline [4] |
| --- | --- | --- | --- | --- | --- | --- | --- | --- | --- | --- |
| Ac-Glu-His-Thr-Gly-Lys(6FAM)-NH2 (Ac-EHTGK(6FAM)-NH2; SMILES CC(=O)N[C@@H](CCC(=O)O)C(=O)N[C@@H](Cc1c[nH]cn1)C(=O)N[C@H](C(=O)NCC(=O)N[C@@H](CCCCNC(=O)c1ccc2c(c1)C1(OC2=O)c2ccc(O)cc2Oc2cc(O)ccc21)C(N)=O)[C@@H](C)O) [Peptide 3] | high | greater | excellent; also recorded: very high | significantly less | much less |  |  |  |  |  |
| CC(=O)N[C@@H](CO)C(=O)N[C@@H](Cc1c[nH]cn1)C(=O)N[C@@H](CO)C(=O)N[C@@H](CC(N)=O)C(=O)N[C@H](C(=O)N[C@@H](CCC(N)=O)C(=O)N[C@H](C(=O)N[C@@H](CC(C)C)C(=O)N[C@@H](C)C(=O)N[C@@H](CCCCN)C(=O)N[C@@H](C)C(=O)N1CCC[C@H]1C(=O)N[C@@H](CCC(=O)O)C(=O)N[C@@H](Cc1c[nH]cn1)C(=O)N[C@H](C(=O)NCC(=O)N[C@@H](CCCCNC(=O)c1ccc2c(c1)C1(OC2=O)c2ccc(O)cc2Oc2cc(O)ccc21)C(N)=O)[C@@H](C)O)[C@@H](C)O)[C@@H](C)O [Peptide A, Ac-Ser-His-Ser-Asn-Thr-Gln-Thr-Leu-Ala-Lys-Ala-Pro-Glu-His-Thr-Gly-Lys(6FAM)-NH2] (Ac-SHSNTQTLAKAPEHTGK(6FAM)-NH2) |  |  |  |  |  | No detectable digested products | a new peak appeared | a new peak appeared | C-terminus lysine labeled with 6-FAM | stable |
